Reference: patent publication US20080176907A1, “NOS Inhibitors For Treatment Of Motor Deficit Disorders” (Northwestern University, priority 2006, published 2008)

Columns and labels:
nNOS = nNOS (Rattus norvegicus, UniProt P29476); conditions: read-out: Ki nNOS
iNOS = iNOS (Mus musculus, UniProt P29477); assay: biochemical
[1] = tested on: total constitutive NOS activity (both nNOS and eNOS) in fetal brain homogenates; assay: NOS activity and NOx levels in fetal brain after maternal administration; type: in vivo; conditions: E22 rabbit dams
Text: The NOS activity assay in fetal brain homogenates assessed total constitutive NOS activity (i.e., both nNOS and eNOS). […] Therefore changes in NOS activity should correspond to changes in nNOS activity. […] The corresponding decrease in the NO concentration also indicated strong NOS inhibition had occurred.

[2] = effect of maternal administration on blood pressure and heart rate in E22 rabbit dams; type: in vivo, New Zealand white rabbit
Method: Because of the importance of eNOS to the regulation of cardiovascular activity, the effect of maternal administration of 4 and 5 on blood pressure in 22 day-gestation (E22) New Zealand white rabbit dams was determined. There was no effect on heart rate or on systolic or diastolic blood pressure by treatment with 4 or 5.

[3] = tested on: hypoxia-ischemia of rabbit fetuses; assay: uterine ischemia, global hypoxia-ischemia of rabbit fetuses, neurobehavioral examination of P1 kits; conditions: for number of normal postnatal P1 kits: compared to saline-treated dams; for protection against HI-fetal brain injury: comparison with 7-NI, p<0.05 Fisher's Exact Test; for permeability to the fetal brain: maternal administration
whole body ischemia = conditions: in vivo; cited from earlier work
[4] = Paudler and Blewitt, 1966; cited from earlier work

Sequence of iNOS (P29477 whole entry): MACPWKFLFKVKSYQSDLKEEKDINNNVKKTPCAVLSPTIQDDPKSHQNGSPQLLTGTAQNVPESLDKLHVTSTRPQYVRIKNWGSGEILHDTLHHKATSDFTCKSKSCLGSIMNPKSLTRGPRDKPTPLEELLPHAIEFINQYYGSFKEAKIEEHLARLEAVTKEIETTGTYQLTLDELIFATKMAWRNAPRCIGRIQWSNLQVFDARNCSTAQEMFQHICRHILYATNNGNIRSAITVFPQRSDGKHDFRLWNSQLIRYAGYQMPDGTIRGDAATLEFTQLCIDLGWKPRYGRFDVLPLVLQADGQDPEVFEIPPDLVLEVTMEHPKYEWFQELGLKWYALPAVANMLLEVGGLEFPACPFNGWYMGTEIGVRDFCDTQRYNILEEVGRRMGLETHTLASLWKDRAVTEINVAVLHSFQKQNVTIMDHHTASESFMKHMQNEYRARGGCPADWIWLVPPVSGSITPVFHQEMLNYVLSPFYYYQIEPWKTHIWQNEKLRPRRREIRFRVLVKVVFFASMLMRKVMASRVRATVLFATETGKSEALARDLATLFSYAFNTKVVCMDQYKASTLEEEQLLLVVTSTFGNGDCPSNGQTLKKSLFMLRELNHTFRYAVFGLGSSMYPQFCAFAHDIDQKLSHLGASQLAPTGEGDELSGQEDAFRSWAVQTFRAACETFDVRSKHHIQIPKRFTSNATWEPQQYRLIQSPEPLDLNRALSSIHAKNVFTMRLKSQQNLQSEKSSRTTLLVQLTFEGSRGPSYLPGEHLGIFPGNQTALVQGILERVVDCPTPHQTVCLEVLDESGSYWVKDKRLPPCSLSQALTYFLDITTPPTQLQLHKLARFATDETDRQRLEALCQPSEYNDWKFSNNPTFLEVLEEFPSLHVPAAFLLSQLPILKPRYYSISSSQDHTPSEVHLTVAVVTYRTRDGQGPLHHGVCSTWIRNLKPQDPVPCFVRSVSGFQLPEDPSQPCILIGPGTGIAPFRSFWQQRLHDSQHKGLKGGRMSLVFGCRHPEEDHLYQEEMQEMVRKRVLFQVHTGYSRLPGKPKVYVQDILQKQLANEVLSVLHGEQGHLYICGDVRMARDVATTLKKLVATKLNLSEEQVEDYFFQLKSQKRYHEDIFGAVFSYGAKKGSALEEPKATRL

SMILES: N=C(NCCC[C@H](N)C(=O)N[C@H]1CN[C@H](C(N)=O)C1)N[N+](=O)[O-] [compound 3]
- Ki (nNOS): 0.1 µM
- Ki (iNOS): 29 µM

SMILES: Cc1cc(N)nc(C[C@H]2CNC[C@H]2NCCNCCc2cccc(F)c2)c1 (racemic) [(±)-5]
- NO concentration (NOx) in fetal brain ([1]; after maternal treatment): decrease
- NOS activity in fetal brain ([1]; shortly after acute maternal treatment): NOS inhibition was observed
- effect on heart rate [2]: no effect
- effect on systolic or diastolic blood pressure [2]: no effect
- effect when administered post-ischemia ([3]; administered post-ischemia): no effect
- number of normal postnatal P1 kits [3]: substantially larger number
- protection against HI-fetal brain injury [3]: superior to 7-NI
- permeability to the fetal brain [3]: permeable
- fetal/neonatal deaths ([3]; rabbit, in vivo): no deaths
- incidence of fetal death (dead/total fetuses) ([3]; rabbit, in vivo): 0/49

SMILES: FC(F)(F)c1ccccc1-n1ccnc1 [TRIM]
- outcome following whole body ischemia (whole body ischemia): worse outcome

SMILES: O=[N+]([O-])c1cccc2cn[nH]c12 [7-NI, 7-nitroindazole, reference compound]
- incidence of fetal death (dead/total fetuses) ([3]; rabbit, in vivo): 10/38
- incidence of fetal death (stillborn) ([3]; rabbit, in vivo): 26%

SMILES: Cc1cc(N)nc(C[C@H]2CNC[C@H]2NCCNCCc2ccccc2)c1 (relative stereo) [JI-6]
- Normal (number of kits) ([3]; Dose 200 ki × 2, Age 22): 9

SMILES: N=C(NCCC[C@H](N)C(=O)O)N[N+](=O)[O-] [εNNA, L-N^ω-nitroarginine]
- Ki (iNOS): 4.55 µM

SMILES: Cc1cc(C)nc(N)c1 [2-amino-4,6-dimethylpyridine]
- pKa [4]: 7.12

SMILES: Cc1cc(N)nc(C[C@H]2CNC[C@H]2NCCNCc2ccc(Cl)cc2)c1 (racemic) [(±)-4]
- effect on heart rate [2]: no effect
- effect on systolic or diastolic blood pressure [2]: no effect
- incidence of fetal death (dead/total fetuses) ([3]; 0/49 is stated for either 4 or 5): 0/49
- Normal (number of kits) ([3]; Dose 75 ki × 2, Age 22): 9
- Severe (number of kits) ([3]; Dose 75 ki × 2, Age 22): 2
- Severe (number of kits) ([3]; Dose 75 ki × 2, Age 25): 2
- Normal (number of kits) ([3]; Dose 75 ki × 2, Age 29): 10
- number of normal postnatal P1 kits [3]: substantially larger number
- protection against HI-fetal brain injury [3]: superior to 7-NI
- fetal/neonatal deaths ([3]; inhibitor 30 min prior to and immediately after uterine ischemia): no deaths
- permeability to the fetal brain [3]: permeable
